Where two headings read alike, the source gives them in different places.

The text below walks through data of patent US20180282323A1, “Mesoionic imidazole derivatives as insecticides” (BAYER CROPSCIENCE AKTIENGESELLSCHAFT, priority 2015, published 2018).

One data set relates to Tetranychus urticae. The experiment in a line: Tetranychus urticae spray test, OP-resistant. The data set is classed as in vivo. The conditions noted are these: application rate 500 g/ha, bean leaf discs, all stages, after 6 days. On the procedure: Tetranychus urticae—Spray Test, OP-Resistant Solvent: 78.0 parts by weight of acetone • • 1.5 parts by weight of dimethylformamide Emulsifier: alkylaryl polyglycol ether
To produce a suitable active ingredient formulation, 1 part by weight of active ingredient is dissolved with the stated parts by weight of solvent and made up with water containing an emulsifier concentration of 1000 ppm until the desired concentration is attained. To produce further test concentrations, the formulation is diluted with emulsifier-containing water.
Discs of bean leaves (Phaseolus vulgaris) infested with all stages of the greenhouse red spider mite (Tetranychus urticae) are sprayed with an active ingredient formulation of the desired concentration.
After 6 days, the efficacy in % is determined. 100% means that all the spider mites have been killed; 0% means that no spider mites have been killed.

For data set [1], the system named is Myzus persicae. The data set is described as follows: Myzus persicae oral test. The data set is classed as in vivo. To be noted: application rate 20 ppm, oral uptake through parafilm, after 5 days; for pest or weed control at 20 ppm: Myzus persicae, 120 h, read-out: efficacy. Summed up:
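Compound dissolved in acetone, diluted with water, then mixed into IPL41 insect medium with sugar in microtitre plates under parafilm. Mixed-population green peach aphids fed through the membrane; % mortality scored after 5 days (100% = all killed).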

For data set [2], the system named is Myzus persicae. The data set is described as follows: Myzus persicae spray test (bell pepper plants). The data set is classed as in vivo. To be noted: application rate 100 ppm, after 6 days.
The nature of data set [3]: log P by HPLC on reversed-phase column (EEC directive 79/831 Annex V.A8). The data set is classed as physicochemical. The method in brief:
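Determined per EEC directive 79/831 Annex V.A8 by HPLC on a reversed-phase C18 column at 43° C.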

The test system of data set [4] is Ctenocephalides felis. The data set is described as follows: Ctenocephalides felis in vitro contact test with adult cat fleas. The data set is classed as in vivo. The conditions noted are these: application rate 5 μg/cm^2, after 48 h, adult cat fleas dead or moribund. On the procedure:
Ctenocephalides felis—In Vitro Contact Tests with Adult Cat Fleas
For the coating of the test tubes, 9 mg of active ingredient are first dissolved in 1 ml of acetone p.a. and then diluted to the desired concentration with acetone p.a. 250 μl of the solution are distributed homogeneously on the inner walls and the base of a 25 ml test tube by turning and rocking on an orbital shaker (rocking rotation at 30 rpm for 2 h). With 900 ppm of active ingredient solution and internal surface area 44.7 cm^2, given homogeneous distribution, an area-based dose of 5 μg/cm^2 is achieved.
After the solvent has evaporated off, the tubes are populated with 5-10 adult cat fleas (Ctenocephalides felis), sealed with a perforated plastic lid and incubated in a horizontal position at room temperature and ambient humidity. After 48 h, efficacy is determined. To this end, the test tubes are stood upright and the fleas are knocked to the base of the tube. Fleas which remain motionless at the base or move in an uncoordinated manner are considered to be dead or moribund.
100% efficacy means that all the fleas were dead or moribund. 0% efficacy means that no fleas were harmed.

Another data set relates to Boophilus microplus. The data set is described as follows: Boophilus microplus injection test. The data set is classed as in vivo. The conditions noted are these: application rate 20 μg/animal, assessed after 7 days by laying of fertile eggs. As for the experimental part: Boophilus microplus—Injection Test Solvent: dimethyl sulphoxide
To produce a suitable active ingredient formulation, 10 mg of active ingredient are mixed with 0.5 ml of solvent and the concentrate is diluted with solvent to the desired concentration.
1 μl of the active ingredient solution is injected into the abdomen of 5 engorged adult female cattle ticks (Boophilus microplus). The animals are transferred into dishes and kept in a climate-controlled room.
Efficacy is assessed after 7 days by laying of fertile eggs. Eggs which are not visibly fertile are stored in a climate-controlled cabinet until the larvae hatch after about 42 days. An efficacy of 100% means that none of the ticks has laid any fertile eggs; 0% means that all the eggs are fertile.

Data set [5] concerns Ctenocephalides felis. The data set is described as follows: Ctenocephalides felis oral test. It counts as in vivo. The conditions noted are these: application rate 100 ppm in citrated cattle blood, after 2 days. On the procedure:
Ctenocephalides felis—Oral Test Solvent: dimethyl sulphoxide
For the purpose of production of a suitable active ingredient formulation, 10 mg of active ingredient are mixed with 0.5 ml of dimethyl sulphoxide. Dilution with citrated cattle blood gives the desired concentration.
About 20 unfed adult cat fleas (Ctenocephalides felis) are placed into a chamber which is closed at the top and bottom with gauze. A metal cylinder whose bottom end is closed with parafilm is placed onto the chamber. The cylinder contains the blood/active ingredient formulation, which can be imbibed by the fleas through the parafilm membrane.
After 2 days, the kill in % is determined. 100% means that all of the fleas have been killed; 0% means that none of the fleas have been killed.

The next data set concerns Lucilia cuprina. The data set is described as follows: Lucilia cuprina test. It counts as in vivo. To be noted: application rate 100 ppm, L1 larvae, after 2 days. On the procedure:
Lucilia cuprina Test Solvent: dimethyl sulphoxide
(§1) To produce a suitable active ingredient formulation, 10 mg of active ingredient are mixed with 0.5 ml of dimethyl sulphoxide, and the concentrate is diluted with water to the desired concentration.
About 20 L1 larvae of the Australian sheep blowfly (Lucilia cuprina) are transferred into a test vessel containing minced horsemeat and the active ingredient formulation of the desired concentration.
After 2 days, the kill in % is determined. 100% means that all the larvae have been killed; 0% means that no larvae have been killed.

For another data set, the system named is Musca domestica. The data set is described as follows: Musca domestica test. The conditions noted are these: application rate 100 ppm, adult houseflies, after 2 days. It counts as in vivo. As for the experimental part:
Musca domestica Test Solvent: dimethyl sulphoxide
as §1
Vessels containing a sponge treated with sugar solution and the active ingredient formulation of the desired concentration are populated with 10 adult houseflies (Musca domestica).
After 2 days, the kill in % is determined. 100% means that all of the flies have been killed; 0% means that none of the flies have been killed.

Data set [6] has as its system Myzus persicae. The data set is described as follows: Myzus persicae spray test (Chinese cabbage leaf discs). The data set is classed as in vivo. The conditions noted are these: application rate 500 g/ha, after 6 days. The method in brief: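 Active ingredient was formulated in acetone/DMF and diluted with water containing 1000 ppm emulsifier. Chinese cabbage leaf discs infested with all aphid stages were sprayed, and % kill was scored after 6 days (100% = all aphids dead).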

A further data set deals with Diabrotica balteata. The data set is described as follows: Diabrotica balteata spray test. The data set is classed as in vivo. To be noted: application rate 160 μg/well, wheat grains with beetle larvae, after 7 days. Summed up: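 Compound in acetone/DMF with emulsifier water sprayed onto wheat seedlings germinated one day on agar, 5 grains per well. Each well then infested with 10-20 Diabrotica balteata larvae. Efficacy scored after 7 days: 100% = plant growth as uninfected control, 0% = no plants grown.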

Setting [7] is: HPLC on reversed-phase column (footnote a).

Consider `O=C(CCl)c1c([O-])n(Cc2cnc(Cl)s2)c2cccc[n+]12` [Example I-1-002, 3-(Chloroacetyl)-1-[(2-chloro-1,3-thiazol-5-yl)methyl]-1H-imidazo[1,2-a]pyridin-4-ium-2-olate], for which, in the data set with Tetranychus urticae, the efficacy worked out at 90%. For the same compound, the pest or weed control at 20 ppm in the data set on Myzus persicae [1] worked out at 100%. In addition, the “efficacy (kill in %)” value in the data set with Myzus persicae [2] stood at 90%. The chromatographic logP in [3] and in [3] (pH 2.7) was 1.69 throughout.
In the case of `COCC(=O)c1c([O-])n(Cc2ccc(Cl)nc2)c2cccc[n+]12` [Example I-1-003], the efficacy was 100% in the data set on Ctenocephalides felis [4], 80% with Boophilus microplus, 100% with Myzus persicae [6] and 100% in the data set on Myzus persicae [1]. Further, the “efficacy (kill in %)” value is 95% in the data set on Ctenocephalides felis [5], 100% in the data set with Lucilia cuprina and 80% in the data set with Musca domestica. The compound also had a log p in data set [3] (setting [7]) of 1.18.
Turning to `O=C(Cn1cccn1)c1c([O-])n(Cc2cnc(Cl)s2)c2cccc[n+]12` [Example I-1-009, 1-[(2-Chloro-1,3-thiazol-5-yl)methyl]-3-(1H-pyrazol-1-ylacetyl)-1H-imidazo[1,2-a]pyridin-4-ium-2-olate], the efficacy amounted to 100% in the data set on Boophilus microplus, 90% in the data set with Tetranychus urticae and 90% in the data set on Myzus persicae [6]. For the same compound, the “efficacy (kill in %)” value in the data set with Lucilia cuprina is 100%. Besides, the pest or weed control at 20 ppm in the data set on Myzus persicae [1] stood at 100%. In addition, the chromatographic logP in data set [3] (reversed-phase C18 HPLC column, pH 2.7, HPLC on reversed-phase column (footnote a), read-out: log p) is 1.47; in data set [3] (reversed-phase C18 HPLC column, HPLC-MS, reversed-phase C18, 43° C., calibration with alkan-2-ones, read-out: log P), 1.47.
For `O=C(Cn1cncn1)c1c([O-])n(Cc2cnc(Cl)s2)c2cccc[n+]12` [Example I-1-014], the results for the efficacy in the data set with Tetranychus urticae and in the data set on Myzus persicae [1] were 90% and 100%, respectively. Besides, the log p in [3] (setting [7]) is on record as 1.1.
On the same counts, the results for `O=C(COc1ccccc1)c1c([O-])n(Cc2cnc(Cl)s2)c2cccc[n+]12` [Example I-1-017] are 90%, 100% and 2.34.
In the case of `O=C(CCl)c1c([O-])n(Cc2cncnc2)c2cccc[n+]12` [Example I-1-019], the efficacy in the data set with Tetranychus urticae worked out at 90%. This compound also returned a log p in [3] (setting [7]) of 0.77.
`CCCOCC(=O)c1c([O-])n(Cc2cnc(Cl)s2)c2cccc[n+]12` [Example I-1-033]: the efficacy in the data set with Ctenocephalides felis [4] turned out to be 90%; in the data set with Boophilus microplus, 80%; with Diabrotica balteata it was 100%; in the data set with Myzus persicae [1], 100%. For the same compound, the “efficacy (kill in %)” value was 90% in the data set with Lucilia cuprina, 100% in the data set on Musca domestica and 100% in the data set on Myzus persicae [2]. This compound also yielded a log p in data set [3] (setting [7]) of 1.92.
On to `O=C(NCC(F)(F)F)c1c([O-])n(Cc2cnc(Cl)s2)c2cccc[n+]12` [Example I-1-137], for which the “efficacy (kill in %)” value in the data set on Lucilia cuprina and in the data set on Myzus persicae [2] was 95% in each case. Besides, the efficacy is 100% with Diabrotica balteata, 90% with Tetranychus urticae and 100% with Myzus persicae [1]. In data set [3] (setting [7]), this compound yielded a log p of 2.08.
